Series [1] deals with leukocyte esterase (LE) of white blood cell (WBC) suspensions. Put plainly: Electrochemical LE assay (ICECEA) of human leukocyte suspensions. The format is biochemical. The following applies: for Average activity of single WBC: 100 μM substrate, pH 7.40 PBS, 0.40 V, from slopes of FIG. 3. The procedure: FIG. 3. Dependence of LE activity on the white blood cell (WBC) count in leukocyte suspensions determined by using ICECEA and compound: (a) I, (b) II, and (c) III. Assay solution, 100 μM substrate I, II, or III in a pH 7.40 PBS solution. Concentration of HQ calibration spikes, 0.54 μM. Dilution factor, 100×. Potential, 0.40 V.
Finally, the compounds I-III were tested in the development of electrochemical LE assay using the ICECEA. The assay was optimized with respect to the detection potential, sample dilution factor, and solution composition (pH, concentration). Such assay was used to determine the esterolytic activity of a series of human leukocyte suspensions. […] Accordingly, the average esterolytic activity of single WBC calculated using the slopes of plots in FIG. 3 was the highest when determined using a compound III (Table 2).
Preparation of Leukocyte Suspensions. The original suspension of leukocytes was diluted 10 times with a PBS solution that contained 10 vol. % DMSO and left for 30 min on a shaker table at 60 rpm to lyse the leukocytes chemically. Such a suspension preserved a constant esterolytic activity for at least 5 days when stored in a refrigerator at 4° C. It was used as a solution C (vide infra) for the ICECEA.

Series [2] has as its system leukocyte esterase (LE). The series can be described thus: Kinetics of reaction with LE by ICECEA (Michaelis-Menten). Particulars: 6.0 nM LE; for Km / kcat: 1-40 μM compound, PBS pH 7.40, 21° C.; for kcat Km^−1: PBS pH 7.40, Table 2. In kind it is biochemical, human. On the procedure: FIG. 2. Michaelis-Menten plots for 6.0 nM LE and 1-40 μM compound: (a) I, (b) II, and (c) III, in PBS (pH 7.40). The solid lines represent the best fit to the experimental points based on the nonlinear regression.
The properties of compounds I-III as LE substrates were further investigated by determining their kinetics of reaction with LE (reaction 1). The initial rate of reaction 1 was measured by ICECEA at a constant LE concentration (cLE=6.0 nM; MW=29 kDa) and under the condition of cLE<<ccompound I-III(ccompound I-III=1-40 μM). The assays were conducted within a linear range of calibration plot for HQ at a GC electrode. One unit (U) of LE activity was defined as the amount of enzyme that catalyzed the hydrolysis of 1.0 μmole of a compound I-III per minute in a PBS solution at room temperature (21° C.). The LE activity (U L^−1) was calculated from the equation
[formula] where AS is an assay slope equal to the slope of rising I-t segment and CS is a calibration slope calculated from the I-t steps of ICECEA traces similar to those shown in FIG. 1. […] The analysis of such plots using the Michaelis-Menten kinetics yielded the Michaelis constants Km and turnover numbers kcat, which are shown in Table 1.

The nature of series [3]: Solubility in water by UV-visible spectrophotometry. In kind it is physicochemical. Particulars: thermodynamic from solid, room temperature (21° C.), A270. On the procedure: Solubility. The solubility of compounds I-III was determined by UV-visible spectrophotometry. The compounds were dissolved in water at room temperature (21° C.) to make a series of solutions with increasing concentration. The solutions were stirred continuously and their spectra were recorded until steady-state equilibrium was reached. Below the solubility limit, the steady-state background-corrected absorbance of solution at 270 nm (A270) was directly proportional to the compound concentration as expected by the Beer-Lambert law. Above the solubility limit, the absorbance steadily levelled off. The low- and high-concentration regions of plots A270 vs. compound concentration were linearized and extrapolated to a crossing point, which was taken as the solubility of compound.

Series [4] has as its system leukocyte esterase (LE). The series can be described thus: ICECEA test of recognition of compounds by LE as substrates (release of hydroquinone). The format is biochemical, human. The following applies: 60 μg mL^−1 compound, 86.7 μg L^−1 LE protein, pH 7.40 PBS, 0.40 V. The procedure: FIGS. 1A-B. (A) ICECEA I-t trace recorded at 0.40 V in a stirred pH 7.40 assay solution containing a tested compound. Each current step is due to the addition of hydroquinone calibrating aliquot to a solution. […] Otherwise, this segment was flat. (B) ICECEA current-time (I-t) traces recorded at a GC electrode in a stirred assay solution of compound (a) I, (b) II, (c) III. Trace # is for a precursor 1 to compounds I-III (Scheme 2). Arrows indicate the addition of 50 μL aliquots of hydroquinone (HQ) and leukocyte esterase (LE) to generate 0.54 μM HQ and 86.7 μg L^−1 LE protein in a solution. Assay solution, pH 7.40 PBS solution containing 60 μg mL^−1 of compound I-III or precursor 1. Traces were overlaid and shortened to show only the linear portion of ascending I-t segments. Potential, 0.40 V.
The initial electrochemical tests were performed to assess a degree of the recognition of compounds I-III by LE as its substrates. […]
The ICECEA was conducted by using phosphate buffer saline (PBS) solutions (pH 7.40, 154 mM NaCl) that contained either a tested compound, HQ, or LE. The current flowing through the GC electrode was measured while spiking 5.00 mL of a stirred assay solution of tested compound with triplicate aliquots of HQ solution and an aliquot of LE solution (FIG. 1). […]

We go through four compounds from US11492331B2, “Redox substrates for leukocyte esterase” (THE BOARD OF REGENTS OF THE UNIVERSITY OF TEXAS SYSTEM, priority 2017, dated 2022).

Structures are written as SMILES. Values after ≈ are worked out from the molar mass of the structure shown. Where a name gives a salt, the structure may show the parent alone.

As to `C[C@H](NS(=O)(=O)c1cccnc1)C(=O)Oc1ccc(OC(=O)[C@H](C)NS(=O)(=O)c2cccnc2)cc1` [Compound I, 4-(((pyridin-3-ylsulfonyl)-L-alanyl)oxy)phenyl (pyridin-3-ylsulfonyl)-L-alaninate], in series [1], the “Average activity of single WBC” value amounted to 0.8 nU. Also, in the series with leukocyte esterase (LE) [2], the Km came to 12 µM, the catalytic constant (kcat) is 3.2 s⁻¹ and the “kcat Km^−1” value came to 270000 M⁻¹ s⁻¹. Further, the solubility in series [3] was 50 µg/mL (≈ 93.5 µM).
As to `C[C@H](N)C(=O)Oc1ccc(OC(=O)[C@H](C)N)cc1` [precursor 1, 1,4-phenylene (2S,2′S)-bis(2-aminopropanoate)-bis hydrochloride], in the series on leukocyte esterase (LE) [4], the “recognition by LE as substrate (rising I-t segment after LE addition)” value was “no rising I-t segment”.
As to `COC(=O)c1cncc(S(=O)(=O)N[C@@H](C)C(=O)Oc2ccc(OC(=O)[C@H](C)NS(=O)(=O)c3cncc(C(=O)OC)c3)cc2)c1` [Compound III, methyl 5-{[(2S)-1-(4-{[(2S)-2-[5-(methoxycarbonyl)pyridine-3-sulfonamido]propanoyl]oxy}phenoxy)-1-oxopropan-2-yl]sulfamoyl}pyridine-3-carboxylate], the “Average activity of single WBC” value in series [1] was 4.5 nU. In series [1] (human leukocyte suspensions, ICECEA), the “detection limit of LE assay” value was found to be 20 WBC μL^−1. Moreover, in the series with leukocyte esterase (LE) [2], the Km turned out to be 11 µM, the kcat is 6.4 s⁻¹ and the “kcat Km^−1” value is 580000 M⁻¹ s⁻¹. In series [3], the solubility stood at 4000 µg/mL (≈ 6150 µM).
In the case of `COc1ccc(S(=O)(=O)N[C@@H](C)C(=O)Oc2ccc(OC(=O)[C@H](C)NS(=O)(=O)c3ccc(OC)nc3)cc2)cn1` [Compound II, 4-((((6-methoxypyridin-3-yl)sulfonyl)-L-alanyl)oxy)phenyl ((6-methoxypyridin-3-yl)sulfonyl)-L-alaninate], the “Average activity of single WBC” value in series [1] is given as 1.5 nU. Moreover, in the series with leukocyte esterase (LE) [2], the Km worked out at 14 µM, the catalytic constant (kcat) turned out to be 5.3 s⁻¹ and the “kcat Km^−1” value came to 380000 M⁻¹ s⁻¹. The same compound returned a solubility in series [3] of 500 µg/mL (≈ 841 µM).

As usually defined, the Km is the substrate concentration at which the rate is half of its maximum. What is called kcat is the maximal rate divided by the concentration of active sites. Usually solubility stands for how much of the substance goes into solution per volume. A lower solubility goes with little dissolved substance.
